From a melting point compilation (Tetko et al.; mined from patent text by program, amines drawn as free bases though some values may be those of a salt)

Q: For `c1ccn(-c2nc(COc3ccc(CCCn4ccnc4)cc3)cs2)c1`, which melting point is on record?
A: The melting point was 93 to 94 °C.

Q: Which melting point does the source give for `FC(F)(F)c1[nH]c(-c2ccc(Cl)cc2)cc1-c1csc(Br)c1` here?
A: Its melting point is 112 to 115 °C.

Q: Which melting point does the source give for `Cc1nc(N)nc(N)c1C#CC(C)(C)c1ccc(C(F)(F)F)cc1` here?
A: Its melting point is 153 to 157 °C.

Q: Which melting point does the source give for `COc1ccc2c(CN3CCC[C@H]3CO)cc3cc4c(cc3c2c1)OCO4` here?
A: The melting point was 138 to 139 °C.

Q: For `C[C@H](c1ccncn1)[C@@](O)(CO)c1ccc(F)cc1F`, which melting point is on record?
A: Its melting point is 148 to 150 °C.

Q: With `O=C(CC1CCCCC1)NC1CC(C(=O)O)Nc2cc(Cl)cc(Cl)c21` (stereo not drawn) as the molecule, how does the melting point read?
A: The melting point was 197 to 200 °C.

Q: For `C[N+]1([O-])C(=O)C(F)N=C(c2ccccc2)c2cc(Cl)ccc21` (stereo not drawn), which melting point is on record?
A: The melting point was 167 to 169 °C.

Q: For `NS(=O)(=O)c1ccc(-c2cnn(Cc3ccccc3)c(=O)c2Cc2ccc(F)cc2)cc1`, which melting point is on record?
A: The melting point was 120 to 123 °C.

Q: With `COCCN1CCN(C(=O)c2ccc3n2Cc2ccccc2N(C(=O)c2ccc(-c4ccccc4C(F)(F)F)c(C)c2)C3)CC1` as the molecule, how does the melting point read?
A: The melting point was 140 to 144 °C.

Q: With `O=C(O)CCCc1ccc(C(Cc2ccccc2)NS(=O)(=O)c2ccc(Cl)cc2)cc1` (stereo not drawn) as the molecule, how does the melting point read?
A: The melting point was 152 to 153 °C.

Q: With `N#Cc1nc(F)c(Cl)c(F)c1Cl` as the molecule, how does the melting point read?
A: Its melting point is 78 to 79 °C.

Q: Which melting point does the source give for `N#Cc1ccc(C(=O)O)c(Cl)c1` here?
A: Its melting point is 154 to 158 °C.

Q: For `Cc1ccc2c(c1)C(O)(c1ccccc1Cl)C(=O)N2` (stereo not drawn), which melting point is on record?
A: The melting point was 295 to 300 °C.

Q: For `CNc1ccc([N+](=O)[O-])cc1N`, which melting point is on record?
A: The melting point was 171 to 173 °C.

Q: With `O=C(O)c1cccc(-c2cccn3c(=O)n(Cc4cccc(C(F)(F)F)c4)nc23)c1` as the molecule, how does the melting point read?
A: Its melting point is 218 to 222 °C.

Q: For `CN1CC(CCCl)Oc2ccc(F)cc2C1=S` (stereo not drawn), which melting point is on record?
A: Its melting point is 135 to 137 °C.

Q: For `Cc1oncc1C(=O)N1CCOCC1`, which melting point is on record?
A: The melting point was 42 to 44 °C.

Q: Which melting point does the source give for `CN1CCc2nc3ccc(Cl)cc3c(Nc3ccccc3)c2C1` here?
A: Its melting point is 137 to 139 °C.

Q: For `Nc1cnc(-c2ccccc2)nc1C(=O)O`, which melting point is on record?
A: The melting point was 199 to 202 °C.

Q: Which melting point does the source give for `CC=C(CC)c1nc(C)nc2c1c(C)c(C)n2-c1c(C)cc(C)cc1C` here?
A: Its melting point is 59 to 61 °C.

Q: Which melting point does the source give for `CC1CC(=Cc2ccccc2OCC(O)CN2CCC(c3ccc4ccccc4c3)CC2)C(=O)O1` (stereo not drawn) here?
A: The melting point was 142 to 144 °C.

Q: Which melting point does the source give for `CCCCC[C@H]1CC[C@H](CCc2ccc(CCC)c(C#N)c2C#N)CC1` here?
A: Its melting point is 83.6 °C.

Q: Which melting point does the source give for `OC(CCl)CN(CC(O)CCl)c1ccccc1` (stereo not drawn) here?
A: Its melting point is 60 °C.

Q: Which melting point does the source give for `Cc1nc2ccccc2cc1NC(=O)N1CCN(c2cccc3ccccc23)CC1` here?
A: The melting point was 220 to 222 °C.

Q: Which melting point does the source give for `Cc1ccc(C)n1C(=O)c1cc2cc(Br)ccc2o1` here?
A: The melting point was 115 to 116 °C.

Q: With `NS(=O)(=O)c1ccc(-n2ccc(C(F)F)n2)c(-c2ccc3c(c2)OCO3)c1` as the molecule, how does the melting point read?
A: Its melting point is 214 to 218 °C.

Q: With `COc1cc(C2CCN(C(=O)C3CCN3)CC2)ccc1Nc1ncc2ccc(-c3ccccc3OC)n2n1` (stereo not drawn) as the molecule, how does the melting point read?
A: The melting point was 103 to 112 °C.

Q: With `CNS(=O)(=O)c1ccc(Nc2cc(N3CCCC3)cc(-c3ccc(OC(F)(F)F)cc3)n2)cc1` as the molecule, how does the melting point read?
A: Its melting point is 83 to 85 °C.

Q: With `Cn1c(-c2cccs2)cnc1[C@H](Cc1ccccn1)N(C=O)c1cc2cc(Cl)ccc2o1` as the molecule, how does the melting point read?
A: Its melting point is 70 to 74 °C.

Q: For `Cc1nc(C(=O)O)co1`, which melting point is on record?
A: Its melting point is greater than 250 °C.

Q: With `COc1ccc(CC(C(N)=O)S(C)(=O)=O)cc1C(=O)NCc1ccc(C(F)(F)F)cc1` (stereo not drawn) as the molecule, how does the melting point read?
A: Its melting point is 219 to 220 °C.

Q: Which melting point does the source give for `COc1ccc(C)nc1I` here?
A: Its melting point is 45 to 50 °C.

Q: With `CON=C(C(=O)O)c1cnsn1` as the molecule, how does the melting point read?
A: Its melting point is 99 to 100 °C.

Q: For `Cc1ccc(S(=O)(=O)NC(=S)Nc2cnccc2N)cc1`, which melting point is on record?
A: The melting point was 185 to 187 °C.

Q: With `CC(=O)SCCC1(C)C(=O)N2CCCC(C(=O)OC(C)(C)C)N2C1=O` (stereo not drawn) as the molecule, how does the melting point read?
A: The melting point was 67 to 70 °C.

Q: Which melting point does the source give for `CC(=O)c1ccc(OCCCN2CCC(c3noc4cc(F)ccc34)CC2)c(O)c1` here?
A: The melting point was 122 to 124 °C.

Q: Which melting point does the source give for `O=C(Nc1ccc(C(F)(F)F)cc1)Nc1ccc2c(c1)OC(F)(F)O2` here?
A: Its melting point is 195 to 200 °C.

Q: Which melting point does the source give for `O=C1NC(=O)C(Cc2ccc3c(c2)CCCN3Cc2ccccc2)S1` (stereo not drawn) here?
A: The melting point was 155 to 158 °C.

Q: For `CCOC(=O)c1ccc2n1Cc1ccccc1N1CCN(C)CC21` (stereo not drawn), which melting point is on record?
A: The melting point was 128 to 130 °C.

Q: With `CCCCCCc1ccc2c(c1)[nH]c1cc(COC(c3ccccc3)(c3ccccc3)c3ccccc3)ccc12` as the molecule, how does the melting point read?
A: The melting point was 155 to 156 °C.

Q: Which melting point does the source give for `Cc1cc(CC(C)(C)CO)cc(C)c1O` here?
A: The melting point was 133 to 134 °C.

Q: With `CC1(C)CC(C)(C)CC2(CCC(=O)N2)C1` as the molecule, how does the melting point read?
A: Its melting point is 158 to 160 °C.

Q: For `CN1CCC[C@H]1c1cnc(Cl)cc1C(O)c1cc(Cl)ncc1[C@@H]1CCCN1C`, which melting point is on record?
A: Its melting point is 80 to 82 °C.

Q: With `CCCCCCCCCCCCCCN(O)C(=O)N(C)C` as the molecule, how does the melting point read?
A: Its melting point is 64 to 66 °C.

Q: With `CC(C)OCc1nc(C(C)(C)O)c(C(=O)OC(C)C)[nH]1` as the molecule, how does the melting point read?
A: Its melting point is 154 to 155 °C.

Q: With `CS(=O)(=O)c1ccc(Oc2ccc([N+](=O)[O-])c(OCc3ccccc3)c2)cc1` as the molecule, how does the melting point read?
A: Its melting point is 142 to 143 °C.

Q: With `CCOC(=O)c1c(C)n(C(=O)c2ccccc2)c2ccc(Oc3nc(OC)cc(OC)n3)c(C(=O)O)c12` as the molecule, how does the melting point read?
A: Its melting point is 113 to 115 °C.

Q: For `CCc1c(Cl)cnn(C(C)(C)C)c1=O`, which melting point is on record?
A: Its melting point is 61.5 to 62.5 °C.

Q: For `CSc1ncc2c(Cl)cc(I)n2n1`, which melting point is on record?
A: The melting point was 216 to 220 °C.

Q: With `FC(F)Oc1cc(-n2nc3c(c2Cl)CCCC3)c(Cl)cc1Cl` as the molecule, how does the melting point read?
A: The melting point was 121 to 123 °C.

Q: With `CCCCOc1ccc(S(=O)(=O)C2(C(=O)O)CCN(CCCOc3ccccc3)CC2)cc1` as the molecule, how does the melting point read?
A: Its melting point is 84 °C.

Q: For `CC(=O)Oc1cc(OCCF)ccc1C(=O)O`, which melting point is on record?
A: Its melting point is 126 to 127 °C.

Q: With `COc1ccc2c(c1)CCC1C2CCC2(C)C(NC(c3ccccc3)c3ccccc3)CCC12` (stereo not drawn) as the molecule, how does the melting point read?
A: The melting point was 127 to 129 °C.

Q: Which melting point does the source give for `O=C(c1ccccn1)c1cnn2c(-c3cccc(C(F)(F)F)c3)ccnc12` here?
A: The melting point was 166 to 167 °C.

Q: With `Cc1nc(NC(=O)c2cnn3c(C(F)(F)F)cc(-c4ccc(C(F)(F)F)c(Cl)c4)nc23)sc1S(=O)(=O)NC(C)(C)CO` as the molecule, how does the melting point read?
A: The melting point was 274 °C.

Q: Which melting point does the source give for `c1ccc(OCCN2CCC(CNc3nc4ccccc4s3)CC2)cc1` here?
A: Its melting point is 116 °C.

Q: For `NCc1c(Cc2ccccc2)nc2ccc(OCC(N)=O)cc2c1-c1ccccc1`, which melting point is on record?
A: Its melting point is 180 to 182 °C.

Q: With `Cc1c(F)cccc1Cc1c(-c2ccccc2)c2ccccn2c1C(=O)N1CCN[C@@H](CC(=O)NCC2CCOCC2)C1` as the molecule, how does the melting point read?
A: The melting point was 147 °C.

Q: Which melting point does the source give for `COc1ccc(N=Nc2ccc(O)c(C(N)=O)c2)cc1` here?
A: The melting point was 231 to 233 °C.

Q: Which melting point does the source give for `C[C@H](Cc1ccc(O)c(O)c1)NC(=O)OC(C)(C)C` here?
A: The melting point was 116 to 118 °C.

Q: For `CCOC(=O)C(C)Sc1nc(-c2cc(C(C)(C)C)c(O)c(C(C)(C)C)c2)c[nH]1` (stereo not drawn), which melting point is on record?
A: The melting point was 80 to 82 °C.

Q: For `O=Cc1ccc(OC2CCCC2)c2oc3ccc([N+](=O)[O-])cc3c12`, which melting point is on record?
A: The melting point was 230 to 240 °C.

Q: With `Fc1ccc(-c2ccc3[nH]c4c(ccc5cc[nH]c54)c3c2)cc1` as the molecule, how does the melting point read?
A: The melting point was greater than 250 °C.

Q: For `CCCCn1c(=O)c2[nH]c(Cl)nc2n(CCCC)c1=O`, which melting point is on record?
A: Its melting point is 152 °C.

Q: For `CC(=O)C1=CCC2C3CCC4CC(O)CCC4(C)C3C(=O)CC12C` (stereo not drawn), which melting point is on record?
A: Its melting point is 218 °C.

Q: With `CN(C)C=C1C(=O)N(C)C(=O)N1c1cccc(C(F)(F)F)c1` as the molecule, how does the melting point read?
A: The melting point was 103 to 104 °C.

Q: For `CCOc1ccc(C(=O)OC)c(Cl)n1`, which melting point is on record?
A: Its melting point is 46 to 48 °C.

Q: With `N#CCN1CCCC(OC(c2ccccc2)c2ccccc2)C1` (stereo not drawn) as the molecule, how does the melting point read?
A: Its melting point is 97 to 99 °C.

Q: Which melting point does the source give for `COc1cc(OC)c2c(=O)[nH]c(-c3cc(C)c(OCCN(C)C)c(C)c3)cc2c1` here?
A: Its melting point is 261 to 263 °C.

Q: For `CCS(=O)(=O)CCON=Cc1nn(-c2c(Cl)cc(C(F)(F)F)cc2Cl)c(N)c1S(C)=O` (stereo not drawn), which melting point is on record?
A: The melting point was 144 to 148 °C.

Q: With `COc1ccc2c(c1)C(=O)N(c1ccc3ncccc3c1)C2` as the molecule, how does the melting point read?
A: Its melting point is 194 to 197 °C.

Q: Which melting point does the source give for `CC(C)Cc1cc(OCC(=O)N(C)C)c2[nH]nc(Nc3nccs3)c2c1` here?
A: The melting point was 96 to 98 °C.

Q: Which melting point does the source give for `O=C(NO)c1ccc2c(c1)CN(C(=O)c1cc3ccccc3cn1)C2` here?
A: Its melting point is 208 to 210 °C.
